# Calls of active or inactive are those of the source.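 Rule for the calls: active = IC50 against T. cruzi CYP51 below a set limit; inactive = the rest.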
# Biological target: Sterol 14-alpha demethylase (Trypanosoma cruzi (strain CL Brener)) (UniProt Q7Z1V1)
# Assay: TcCYP51 inhibitors, dose response, mechanism study for T. cruzi antiparasitic project, biochemical, recombinant enzyme (AID 1159558);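 note: enzyme in bacterial membranes with Anopheles gambiae CYP reductase and cytochrome b5 partners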
# Details: recombinant T. cruzi CYP51, BOMCC fluorescence
# Sterol 14-alpha demethylase (Trypanosoma cruzi (strain CL Brener)), sequence (Q7Z1V1 whole entry, looked up): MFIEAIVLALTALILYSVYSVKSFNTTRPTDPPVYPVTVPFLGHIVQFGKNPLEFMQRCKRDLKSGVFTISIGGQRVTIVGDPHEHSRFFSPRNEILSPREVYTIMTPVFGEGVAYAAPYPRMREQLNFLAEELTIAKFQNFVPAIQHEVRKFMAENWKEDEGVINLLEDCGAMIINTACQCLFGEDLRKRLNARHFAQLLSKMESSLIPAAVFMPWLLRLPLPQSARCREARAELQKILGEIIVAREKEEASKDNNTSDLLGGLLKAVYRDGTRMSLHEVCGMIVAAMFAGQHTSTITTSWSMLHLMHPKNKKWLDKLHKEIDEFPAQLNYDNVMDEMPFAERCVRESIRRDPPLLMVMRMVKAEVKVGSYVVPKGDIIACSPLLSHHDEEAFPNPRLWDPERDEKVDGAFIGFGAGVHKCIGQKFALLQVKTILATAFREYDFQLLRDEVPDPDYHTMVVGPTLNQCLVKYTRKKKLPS
row,Compound,IC50
1,Cc1c([N+](=O)[O-])c(C(=O)Nc2sc3c(c2C#N)CCC(C)C3)nn1C (stereo not drawn),> 100 µM (inactive)
2,c1ccc2c(CCOc3nccnc3-c3ccncc3)c[nH]c2c1,0.063 µM
3,COc1ccc(-c2csc(NC(=O)c3ccc([N+](=O)[O-])s3)n2)cc1OC,> 100 µM (inactive)
4,CCS(=O)(=O)Nc1ccc(C2=NN(C(=O)c3cccs3)C(c3ccccc3OC)C2)cc1 (stereo not drawn),25 µM
5,CCS(=O)(=O)c1cccc(C(=O)Nc2nc(-c3ccccn3)cs2)c1,63 µM
6,O=C(C1CCCCC1)N1CCN(c2nnc(-c3ccccc3)c3ccccc23)CC1,> 100 µM (inactive)
7,Cc1sc(C)c(C(F)(F)F)c1CNCCCNc1cc(=O)c2ccccc2[nH]1,20 µM
8,O=c1[nH]cnc2c([C@@H]3O[C@H](CO)[C@@H](O)[C@H]3O)[nH]nc12,> 100 µM (inactive)
9,Cc1cc(=O)n2nc(Oc3ccc(C#N)cc3Cl)sc2n1,> 100 µM (inactive)
10,CCCC(=O)N(Cc1ccccn1)c1nc2ccccc2s1,0.05 µM
11,CC(C)(C)C(Cn1ccnc1)NC(=O)c1ccc2nc(C3CC3)oc2c1 (stereo not drawn),0.1 µM
12,Cc1ccc(C)c(OC2CCN(C(=O)C(C)n3ccnc3)CC2)c1 (stereo not drawn),0.1 µM
13,CC(=O)NC1(c2ccccc2)CCN(CC(=O)Nc2ccccc2-c2ccccc2)CC1,50 µM
14,Cc1ccc(-c2csc(NC(=O)C=Cc3ccc(S(=O)(=O)N4CCOCC4)cc3)n2)o1,20 µM
15,Cc1ccc(S(=O)(=O)Nc2ccc(CN3CCN(C(=O)c4cccc(C#N)c4)CC3)cc2)cc1,> 100 µM (inactive)
16,COc1ccc([N+](=O)[O-])cc1NC(=O)Nc1cccc(Cl)c1,> 100 µM (inactive)
17,CC(C)COC(=O)Nc1ccc(N2CCC(CNS(=O)(=O)c3ccccc3)CC2)c(F)c1,2 µM
18,COc1ccc(S(=O)(=O)Nc2ccc(CN3CCN(C(=O)c4cccc(C#N)c4)CC3)cc2)cc1,> 100 µM (inactive)
19,Cc1c(C(C)NC(=O)Nc2cccc(Cl)c2)sc2ncnn12 (stereo not drawn),0.13 µM
20,Cc1nn(-c2nc3ccccc3s2)c2c1C(c1ccc(OCC(N)=O)cc1)SCC(=O)N2 (stereo not drawn),> 100 µM (inactive)
21,Cc1ccc(NC(=O)C(C)n2nc([N+](=O)[O-])c(Br)c2C)cc1Cl (stereo not drawn),> 100 µM (inactive)
22,Cc1nc(N2CC(C)OC(C)C2)sc1C(=O)Nc1ccc2c(c1)OCO2 (stereo not drawn),40 µM
23,CN(Cc1nc2ccc(C(=O)NCC3CCCCC3)cc2[nH]1)C1CCCc2cccnc21 (stereo not drawn),40 µM
24,CN(C)CCN(C)Cc1ccc(Cl)cc1NS(=O)(=O)c1ccc(Cl)c(Cl)c1,32 µM

row,Compound,IC50
1,Cc1ccc(S(=O)(=O)Cn2nnnc2C(c2cccnc2)N2CCN(c3ccccc3)CC2)cc1 (stereo not drawn),0.2 µM
2,COc1ccc(S(=O)(=O)Nc2ccccc2OC)cc1NC(=O)CCCc1c[nH]c2ccccc12,> 100 µM (inactive)
3,Cc1ccccc1NS(=O)(=O)c1ccc2[nH]cc(C(=O)NC3CCCC(C)C3C)c(=O)c2c1 (stereo not drawn),5 µM
4,O=C(NCC1CCCCC1)c1cc(=O)c2ccccc2o1,> 100 µM (inactive)
5,CN(C)CCN(C)Cc1ccc(F)cc1NS(=O)(=O)c1ccc(Cl)c(Cl)c1,> 130 µM (inactive)
6,Cc1cc(C)nc(N2CCC(N(Cc3cccnc3)C(=O)c3cccc(C#N)c3)CC2)n1,0.13 µM
7,O=c1[nH]c(NCCCNCc2cc(Br)cc(Br)c2)nc2ccsc12,32 µM
8,Cc1c(C#N)c([N+](=O)[O-])nn1Cc1cccc(Cl)c1Cl,> 100 µM (inactive)
9,CN(C)Cc1ccc(-c2ccc(S(=O)(=O)NCC3CCCO3)c(F)c2)cc1 (stereo not drawn),40 µM
10,Cc1ccc(S(=O)(=O)Nc2ccc(CN3CCN(C(=O)c4cccc(C)c4)CC3)cc2)cc1,79 µM
11,Cc1nn(-c2ccccc2)nc1CNC(=O)CN(Cc1ccccn1)Cc1ccccn1,25 µM
12,O=C(c1ccc(O)c(Cl)c1)N1CCN(c2cnccn2)CC1,> 100 µM (inactive)
13,COc1ccc(C2=NCC(CSc3nnc(-c4ccc5c(c4)OCO5)o3)S2)cc1 (stereo not drawn),10 µM
14,CCc1cccc(-n2nc(OCC(=O)NC3CCCC3)c3cccnc32)c1,> 100 µM (inactive)
15,COc1cccc2sc(CN(C)C(=O)C3CNCCN3c3ccc(F)cc3)c(C)c12 (stereo not drawn),0.25 µM
16,CNc1cc(C)nc(C2CN(C(=O)c3n[nH]c4ccccc34)CCO2)c1 (stereo not drawn),> 100 µM (inactive)
17,Clc1ccc(Sc2cnccc2N2CCOCC2)cc1,0.032 µM
18,O=[N+]([O-])c1ccc(C2=CC(c3ccccc3)=NCCN2)cc1,50 µM
19,CC(C)Nc1nc(Cl)nc2ccccc12,> 100 µM (inactive)
20,O=C(c1ccc(Cl)cc1)c1ccc(OC(=O)N2CCOCC2)cc1,40 µM
21,COc1cc(OC)cc(C(NS(=O)(=O)c2ccc(Cl)c(C(F)(F)F)c2)c2nccn2C)c1 (stereo not drawn),32 µM
22,CC(C)(C)CC(=O)NCc1noc(COc2ccccc2)n1,50 µM
23,O=[N+]([O-])c1ccc(-c2nnn(-c3ccc(Cl)cc3)n2)o1,> 100 µM (inactive)
24,CCn1c(-c2nonc2N)nc2c([C@@H](C)O)ncc(O[C@H](CN)c3ccccc3)c21,25 µM

row,Compound,IC50
1,O=C(CN1CCC2(O)CCCCC2C1c1ccc2c(c1)OCO2)Nc1ccc(Cl)cc1Cl (stereo not drawn),13 µM
2,CC(C)(C)C(=O)NCCc1csc(-c2ccc(F)cc2)n1,79 µM
3,Clc1ccc(C(CC2CCCCO2)Cn2cncn2)c(Cl)c1 (stereo not drawn),0.25 µM
4,Cc1cc(NC(=O)c2ccc([N+](=O)[O-])s2)ccc1Br,10 µM
5,COc1ccc(NC(=O)c2ccc(NC(=O)CN(c3ccccc3C)S(C)(=O)=O)cc2)cc1,6.3 µM
6,Cc1nc2nc(C)c(Cc3ccc(C(C)C)cc3)c(=O)n2[nH]1,> 100 µM (inactive)
7,CCOc1ccc(N(C)S(=O)(=O)c2ccc3[nH]cc(C(=O)NC4CCCC4)c(=O)c3c2)cc1,6.3 µM
8,O=C(Nc1ccc(Br)cn1)c1ccc(Cn2cnc([N+](=O)[O-])n2)cc1,> 100 µM (inactive)
9,COc1ccc2ncc(Cl)c(CCN3CC[C@@H](NCc4cc5c(cn4)OCS5)[C@H](O)C3)c2n1,1 µM
10,O=C(Nc1ccc(C(F)(F)F)cc1)NC1(C(=O)NCc2ccco2)CCCCC1,> 32 µM (inactive)
11,Cc1nccn1C1CCCN(C(=O)c2cc3c(F)cccc3s2)C1 (stereo not drawn),50 µM
12,Cc1nn(C2CCS(=O)(=O)C2)c(C)c1CN(C)C(=O)C=Cc1sc2ccccc2c1Cl (stereo not drawn),0.032 µM
13,O=c1cc(NCCCNCc2cc(C(F)(F)F)cs2)[nH]c2ccccc12,25 µM
14,CC(Cn1ccnc1)NC(=O)C1CC1c1cccc(Cl)c1Cl (stereo not drawn),0.13 µM
15,CCc1nn(-c2ncc(F)c(NC(C)C)n2)c(N)c1C1CCCCC1,> 100 µM (inactive)
16,O=C(c1ccccc1)N1CCC(C(=O)N2CCC(Oc3ccccc3Cl)CC2)CC1,20 µM
17,CN1CCC(N(C)c2nccc(N3CCN(C(=O)c4cccc(-c5cccnc5)c4)CC3)n2)CC1,1.6 µM
18,COc1ccc2ncc(=O)n(CCN3CCC(NCc4ccc(-c5cccs5)cc4)CC3)c2n1,25 µM
19,Cc1cccc(N2CCCN(Cc3c[nH]c4ccccc34)CC2)n1,> 100 µM (inactive)
20,CCCn1c(NC(=O)Cc2ccc(Cl)cc2)nc2ccccc21,> 100 µM (inactive)
21,COc1ccc(C(=O)Nc2c(C)nn(COc3cccc(C(F)(F)F)c3)c2C)cc1,13 µM
22,O=C(Nc1ccc(C(F)(F)F)cc1)Nc1cccc([N+](=O)[O-])c1,6.3 µM
23,C=CCOCC1Cn2nc([N+](=O)[O-])nc2O1 (stereo not drawn),> 100 µM (inactive)
24,O=C(Nc1cccc(Cl)c1)Nc1ccc([N+](=O)[O-])cc1Cl,5 µM

# Now from value to molecule:
row,IC50,Compound
1,> 100 µM (inactive),COCc1cc(Nc2ccccc2)nc(-c2ccccn2)n1
2,40 µM,Cc1nc(C(=O)Nc2ccc3c(c2)OCO3)nn1-c1ccc(F)cc1
3,> 100 µM (inactive),Nc1nc(-c2ccccn2)nc(-n2nc(-c3ccccc3)cc2N)n1
4,0.079 µM,O=C(NCCc1ccccc1Cl)c1cccn1-c1cccnc1
5,0.04 µM,COc1ccc(C)cc1-c1csc(NC(=O)C(C)n2ccnc2)n1 (stereo not drawn)
6,10 µM,Cc1nc2c(-c3ncn[nH]3)cc(NC(=O)Cc3ccccc3)cn2c1C
7,0.79 µM,COc1ccnc2[nH]cc(-c3cc(C(=O)N[C@H](CO)c4ccccc4)co3)c12
8,0.13 µM,CC1=C(C(=O)Nc2ccc(Cl)cc2)C(c2ccncc2)n2ncc(C(=O)Nc3ccccc3)c2N1 (stereo not drawn)
9,40 µM,Cn1ccnc1-c1nc(NCc2ccccc2Cl)cc(C2CC2)n1
10,4 µM,CCOc1cnn(C)c(=O)c1Nc1ccc(C(=O)NCc2ccc(F)cc2)cc1
11,> 100 µM (inactive),Oc1cccnc1-c1n[nH]c(Cc2ccccc2)n1
12,> 100 µM (inactive),CCNc1cc(-c2ccccn2)nc(Nc2ccccc2)n1
13,> 100 µM (inactive),O=C(Nc1ccc(-c2nc3ccccc3c(=O)[nH]2)cc1)c1cccs1
14,2.5 µM,O=C(Cc1ccc2c(c1)CCC2)Nc1n[nH]c(-c2ccccn2)n1
15,0.063 µM,O=C(NCCc1cccnc1)c1csc(-c2ccccc2)n1
16,5 µM,CNc1nc(C)nc(N2CCc3cc(C(=O)NCc4ccc(-c5ccn[nH]5)cc4Cl)ccc32)n1

row,IC50,Compound
1,0.1 µM,CC(=Cc1ccccc1)CN1CCC(=O)N(Cc2cccnc2)CC1
2,5 µM,COCCn1c(-c2ccc3c(c2)OCO3)cnc1NCc1ccccc1OC
3,32 µM,COc1ccc(Nc2nccc(N(C)c3n[nH]c4c(F)cccc34)n2)cc1S(C)(=O)=O
4,> 100 µM (inactive),O=C1OCc2ccc(Nc3nccc(-c4cnn5ncccc45)n3)cc21
5,7.9 µM,COc1ncc(-c2ccc3nccc(-c4ccncc4)c3c2)cc1NS(=O)(=O)C1CC1
6,> 100 µM (inactive),CC(C)Nc1nccc(-c2c(-c3ccc(F)cc3)ncn2C2CCOCC2)n1
7,> 100 µM (inactive),c1ccc(Nc2nc3ccccc3[nH]2)nc1
8,16 µM,Cc1ccccc1CNc1cc(C2CC2)nc(-c2nccn2C)n1
9,40 µM,Cc1ccc2onc(Nc3ccnc(Nc4cccc(S(C)(=O)=O)c4)n3)c2c1
10,0.79 µM,Cc1nc(-c2ccncc2)ncc1C(C)NC(=O)c1ccc(Cl)s1 (stereo not drawn)
11,4 µM,O=C(CC1(O)C(=O)N(Cc2ccccc2)c2ccc(Br)cc21)c1cccnc1 (stereo not drawn)
12,> 100 µM (inactive),CCOc1ccccc1C(=O)Nc1nnc(-c2ccc3c(c2)OCO3)s1
13,> 100 µM (inactive),Oc1c(-c2n[nH]c(CCc3ccccc3)n2)ncc2cccnc12
14,10 µM,N#Cc1cnc(Nc2cccc(CCN3CCOCC3)c2)nc1Nc1ccccc1C(N)=O
15,40 µM,CN(C)S(=O)(=O)c1ccc(-c2cnc(N)c(-c3nc4ccc(F)cc4[nH]3)c2)cc1
